System: T1, protocatechuate 3,4-dioxygenase (3,4-POD)
T1 construct: gene pcaG; 700 kDa; (alpha-beta)n, n = 2-12, non-heme Fe(III); free enzyme
Test: disappearance of […],4-DHBA at […] nm; non-linear Michaelis-Menten fit
Format: biochemical, Pseudomonas sp.
Conditions: free enzyme; 50 mM CHES, pH 9.0, 55 °C; 3,4-DHBA 1–200 μM

`O=C(O)c1ccc(O)c(O)c1` [3,4-dihydroxybenzoic acid] was tested, and the Km was 37 ± 15 µM.

— article PMC5056344, “Highly Efficient and Stable Novel NanoBiohybrid Catalyst to Avert 3,4-Dihydroxybenzoic Acid Pollutant in Water” (Scientific Reports, 2016)
